In patent US9695155B2, “Herbicidal substituted pyrimidinyloxy benzene compounds” (E. I. DU PONT DE NEMOURS AND COMPANY, priority 2013, dated 2017):

Assays:
Test in all cases: Test E preemergence
dayflower = type: in vivo, Commelina virginica; conditions: for Dayflower, VA plant response rating: scale 0 to 100 (0 no effect, 100 complete control)
From the text: (§1) Seeds of plant species selected from corn (Zea mays), soybean (Glycine max), velvetleaf (Abutilon theophrasti), lambsquarters (Chenopodium album), wild poinsettia (Euphorbia heterophylla), palmer pigweed (Amaranthus palmeri), waterhemp (common waterhemp, Amaranthus rudis), surinam grass (Brachiaria decumbens), large (Lg) crabgrass (Digitaria sanguinalis), Brazilian crabgrass (Digitaria horizontalis), fall panicum (Panicum dichotomiflorum), giant foxtail (Setaria faberii), green foxtail (Setaria viridis), goosegrass (Eleusine indica), johnsongrass (Sorghum halepense), ragweed (common ragweed, Ambrosia elatior), barnyardgrass (Echinochloa crus-galli), sandbur (southern sandbur, Cenchrus echinatus), arrowleaf sida (Sida rhombifolia), Italian ryegrass (Lolium multiflorum), dayflower (Virginia (VA) dayflower, Commelina virginica), field bindweed (Convolvulus arvensis), morningglory (Ipomoea coccinea), nightshade (eastern black nightshade, Solanum ptycanthum), kochia (Kochia scoparia), yellow nutsedge (Cyperus esculentus), cocklebur (common cocklebur, Xanthium strumarium), smartweed (ladysthumb smartweed, and hairy beggarticks (Bidens pilosa), were planted into a silt loam soil and treated preemergence with test chemicals formulated in a non-phytotoxic solvent mixture which included a surfactant.
(§2) At the same time, plants from these crop and weed species and also horseweed (Canada horseweed, Conyza canadensis), waterhemp_RES1, (ALS & Triazine resistant common waterhemp, Amaranthus rudis), and waterhemp_RES2, (ALS & HPPD resistant common waterhemp, Amaranthus rudis) were planted in pots containing Redi-Earth® planting medium (Scotts Company, 14111 Scottslawn Road, Marysville, Ohio 43041) comprising spaghnum peat moss, vermiculite, wetting agent and starter nutrients were treated with postemergence applications of test chemicals formulated in the same manner. Plants ranged in height from 2 to 18 cm for postemergence treatments (1- to 4-leaf stage). Treated plants and controls were maintained in a greenhouse for 14 to 21 days, after which time all species were compared to controls and visually evaluated. Plant response ratings, summarized in Table E, are based on a scale of 0 to 100 where 0 is no effect and 100 is complete control. A dash (-) response means no test result.

fall panicum = type: in vivo, Panicum dichotomiflorum; conditions: for Panicum, Fall plant response rating: scale 0 to 100 (0 no effect, 100 complete control)
From the text: as §1, §2

velvetleaf = type: in vivo, Abutilon theophrasti; conditions: for Velvetleaf plant response rating: scale 0 to 100 (0 no effect, 100 complete control)
From the text: as §1, §2

corn = type: in vivo, Zea mays; conditions: for Corn plant response rating: scale 0 to 100 (0 no effect, 100 complete control)
From the text: as §1, §2

johnsongrass = type: in vivo, Sorghum halepense; conditions: for Johnsongrass plant response rating: scale 0 to 100 (0 no effect, 100 complete control)
From the text: as §1, §2

ragweed = type: in vivo, Ambrosia elatior; conditions: for Ragweed plant response rating: scale 0 to 100 (0 no effect, 100 complete control)
From the text: as §1, §2

soybean = type: in vivo, Glycine max; conditions: for Soybean plant response rating: scale 0 to 100 (0 no effect, 100 complete control)
From the text: as §1, §2

field bindweed = type: in vivo, Convolvulus arvensis; conditions: for Field Bindweed plant response rating: scale 0 to 100 (0 no effect, 100 complete control)
From the text: as §1, §2

yellow nutsedge = type: in vivo, Cyperus esculentus; conditions: for Nutsedge, Yellow plant response rating: scale 0 to 100 (0 no effect, 100 complete control)
From the text: as §1, §2

[1] = 125 g ai/ha, scale 0 to 100, 0 no effect, 100 complete control
[2] = 250 g ai/ha, scale 0 to 100, 0 no effect, 100 complete control
[3] = 8 g ai/ha, scale 0 to 100, 0 is no effect, 100 is complete control

## Cc1cnc(Oc2cccc(C#N)c2-n2cc(C#N)cn2)nc1 [Compound 90]
dayflower; 16 g ai/ha
  Dayflower, VA plant response rating: 0
dayflower; 31 g ai/ha
  Dayflower, VA plant response rating: 0
dayflower; [1]
  Plant response rating, Dayflower, VA: 0
Fall panicum; 16 g ai/ha
  Panicum, Fall plant response rating: 0
Fall panicum; 31 g ai/ha
  Panicum, Fall plant response rating: 0
Fall panicum; 62 g ai/ha
  Panicum, Fall plant response rating: 0
Fall panicum; [1]
  Plant response rating, Panicum, Fall: 80
velvetleaf; 16 g ai/ha
  Velvetleaf plant response rating: 0
velvetleaf; 31 g ai/ha
  Velvetleaf plant response rating: 20
velvetleaf; 62 g ai/ha
  Velvetleaf plant response rating: 60
velvetleaf; [1]
  Plant response rating, Velvetleaf: 85
corn; 16 g ai/ha
  Corn plant response rating: 0
corn; 31 g ai/ha
  Corn plant response rating: 0
corn; 62 g ai/ha
  Corn plant response rating: 0
corn; [1]
  Plant response rating, Corn: 0
johnsongrass; 16 g ai/ha
  Johnsongrass plant response rating: 0
johnsongrass; 31 g ai/ha
  Johnsongrass plant response rating: 0
johnsongrass; 62 g ai/ha
  Johnsongrass plant response rating: 0
johnsongrass; [1]
  Plant response rating, Johnsongrass: 15
ragweed; 16 g ai/ha
  Ragweed plant response rating: 0
ragweed; 31 g ai/ha
  Ragweed plant response rating: 50
ragweed; 62 g ai/ha
  Ragweed plant response rating: 50
ragweed; [1]
  Plant response rating, Ragweed: 75
soybean; 31 g ai/ha
  Soybean plant response rating: 15
soybean; 62 g ai/ha
  Soybean plant response rating: 30
soybean; [1]
  Plant response rating, Soybean: 35
Field bindweed; 16 g ai/ha
  Field Bindweed plant response rating: 35
Field bindweed; 31 g ai/ha
  Field Bindweed plant response rating: 50
Field bindweed; 62 g ai/ha
  Field Bindweed plant response rating: 70
Field bindweed; [1]
  Plant response rating, Field Bindweed: 65
Yellow nutsedge; 16 g ai/ha
  Nutsedge, Yellow plant response rating: 0
Yellow nutsedge; 31 g ai/ha
  Nutsedge, Yellow plant response rating: 0
Yellow nutsedge; 62 g ai/ha
  Nutsedge, Yellow plant response rating: 0
Yellow nutsedge; [1]
  Plant response rating, Nutsedge, Yellow: 0

## Cc1cnc(Oc2cccc(C#N)c2-n2cc(C(F)(F)F)cn2)nc1 [Compound 180]
dayflower; 31 g ai/ha
  Dayflower, VA plant response rating: 0
dayflower; 62 g ai/ha
  Dayflower, VA plant response rating: 35
dayflower; [1]
  Plant response rating, Dayflower, VA: 85
dayflower; [2]
  Plant response rating, Dayflower, VA: 90
Fall panicum; 31 g ai/ha
  Panicum, Fall plant response rating: 95
Fall panicum; 62 g ai/ha
  Panicum, Fall plant response rating: 100
Fall panicum; [1]
  Plant response rating, Panicum, Fall: 100
Fall panicum; [2]
  Plant response rating, Panicum, Fall: 100
velvetleaf; 31 g ai/ha
  Velvetleaf plant response rating: 35
velvetleaf; 62 g ai/ha
  Velvetleaf plant response rating: 80
velvetleaf; [1]
  Plant response rating, Velvetleaf: 100
velvetleaf; [2]
  Plant response rating, Velvetleaf: 100
corn; 31 g ai/ha
  Corn plant response rating: 0
corn; 62 g ai/ha
  Corn plant response rating: 15
corn; [1]
  Plant response rating, Corn: 40
corn; [2]
  Plant response rating, Corn: 65
johnsongrass; 31 g ai/ha
  Johnsongrass plant response rating: 0
johnsongrass; 62 g ai/ha
  Johnsongrass plant response rating: 50
johnsongrass; [1]
  Plant response rating, Johnsongrass: 75
johnsongrass; [2]
  Plant response rating, Johnsongrass: 80
ragweed; 31 g ai/ha
  Ragweed plant response rating: 70
ragweed; 62 g ai/ha
  Ragweed plant response rating: 90
ragweed; [1]
  Plant response rating, Ragweed: 100
ragweed; [2]
  Plant response rating, Ragweed: 100
soybean; 31 g ai/ha
  Soybean plant response rating: 35
soybean; 62 g ai/ha
  Soybean plant response rating: 70
soybean; [1]
  Plant response rating, Soybean: 90
soybean; [2]
  Plant response rating, Soybean: 98
Field bindweed; 31 g ai/ha
  Field Bindweed plant response rating: 10
Field bindweed; 62 g ai/ha
  Field Bindweed plant response rating: 25
Field bindweed; [1]
  Plant response rating, Field Bindweed: 65
Field bindweed; [2]
  Plant response rating, Field Bindweed: 90
Yellow nutsedge; 31 g ai/ha
  Nutsedge, Yellow plant response rating: 0
Yellow nutsedge; 62 g ai/ha
  Nutsedge, Yellow plant response rating: 30
Yellow nutsedge; [1]
  Plant response rating, Nutsedge, Yellow: 60
Yellow nutsedge; [2]
  Plant response rating, Nutsedge, Yellow: 75

## NC(=S)c1cccc(Oc2ncc(Cl)cn2)c1-n1cc(Cl)cn1 [Compound 292]
dayflower; [3]
  Plant response rating, Dayflower, VA: 20
dayflower; 16 g ai/ha
  Dayflower, VA plant response rating: 20
dayflower; 31 g ai/ha
  Dayflower, VA plant response rating: 20
dayflower; 62 g ai/ha
  Dayflower, VA plant response rating: 35
dayflower; [1]
  Plant response rating, Dayflower, VA: 85
Fall panicum; [3]
  Plant response rating, Panicum, Fall: 0
Fall panicum; 31 g ai/ha
  Panicum, Fall plant response rating: 0
Fall panicum; 62 g ai/ha
  Panicum, Fall plant response rating: 90
Fall panicum; [1]
  Plant response rating, Panicum, Fall: 100
velvetleaf; [3]
  Plant response rating, Velvetleaf: 0
velvetleaf; 31 g ai/ha
  Velvetleaf plant response rating: 30
velvetleaf; 62 g ai/ha
  Velvetleaf plant response rating: 35
velvetleaf; [1]
  Plant response rating, Velvetleaf: 90
corn; [3]
  Plant response rating, Corn: 0
corn; 16 g ai/ha
  Corn plant response rating: 0
corn; 31 g ai/ha
  Corn plant response rating: 0
corn; 62 g ai/ha
  Corn plant response rating: 0
corn; [1]
  Plant response rating, Corn: 0
johnsongrass; [3]
  Plant response rating, Johnsongrass: 0
johnsongrass; 31 g ai/ha
  Johnsongrass plant response rating: 15
johnsongrass; 62 g ai/ha
  Johnsongrass plant response rating: 20
johnsongrass; [1]
  Plant response rating, Johnsongrass: 35
ragweed; [3]
  Plant response rating, Ragweed: 0
ragweed; 31 g ai/ha
  Ragweed plant response rating: 0
ragweed; 62 g ai/ha
  Ragweed plant response rating: 0
ragweed; [1]
  Plant response rating, Ragweed: 35
soybean; [3]
  Plant response rating, Soybean: 0
soybean; 31 g ai/ha
  Soybean plant response rating: 0
soybean; 62 g ai/ha
  Soybean plant response rating: 40
soybean; [1]
  Plant response rating, Soybean: 50
Field bindweed; [3]
  Plant response rating, Field Bindweed: 0
Field bindweed; 16 g ai/ha
  Field Bindweed plant response rating: 0
Field bindweed; 31 g ai/ha
  Field Bindweed plant response rating: 5
Field bindweed; 62 g ai/ha
  Field Bindweed plant response rating: 30
Field bindweed; [1]
  Plant response rating, Field Bindweed: 65
Yellow nutsedge; [3]
  Plant response rating, Nutsedge, Yellow: 0
Yellow nutsedge; 31 g ai/ha
  Nutsedge, Yellow plant response rating: 0
Yellow nutsedge; 62 g ai/ha
  Nutsedge, Yellow plant response rating: 15
Yellow nutsedge; [1]
  Plant response rating, Nutsedge, Yellow: 35

## FC(F)c1cccc(Oc2ncc(Cl)cn2)c1-n1cc(C(F)(F)F)cn1 [Compound 170]
dayflower; [3]
  Plant response rating, Dayflower, VA: 0
dayflower; 16 g ai/ha
  Dayflower, VA plant response rating: 30
dayflower; 31 g ai/ha
  Dayflower, VA plant response rating: 30
dayflower; 62 g ai/ha
  Dayflower, VA plant response rating: 80
dayflower; [1]
  Plant response rating, Dayflower, VA: 95
Fall panicum; [3]
  Plant response rating, Panicum, Fall: 0
Fall panicum; 31 g ai/ha
  Panicum, Fall plant response rating: 20
Fall panicum; 62 g ai/ha
  Panicum, Fall plant response rating: 98
Fall panicum; [1]
  Plant response rating, Panicum, Fall: 100
velvetleaf; [3]
  Plant response rating, Velvetleaf: 0
velvetleaf; 31 g ai/ha
  Velvetleaf plant response rating: 60
velvetleaf; 62 g ai/ha
  Velvetleaf plant response rating: 65
velvetleaf; [1]
  Plant response rating, Velvetleaf: 100
corn; [3]
  Plant response rating, Corn: 0
corn; 16 g ai/ha
  Corn plant response rating: 0
corn; 31 g ai/ha
  Corn plant response rating: 20
corn; 62 g ai/ha
  Corn plant response rating: 10
corn; [1]
  Plant response rating, Corn: 30
johnsongrass; [3]
  Plant response rating, Johnsongrass: 15
johnsongrass; 31 g ai/ha
  Johnsongrass plant response rating: 15
johnsongrass; 62 g ai/ha
  Johnsongrass plant response rating: 25
johnsongrass; [1]
  Plant response rating, Johnsongrass: 70
ragweed; [3]
  Plant response rating, Ragweed: 0
ragweed; 31 g ai/ha
  Ragweed plant response rating: 0
ragweed; 62 g ai/ha
  Ragweed plant response rating: 5
ragweed; [1]
  Plant response rating, Ragweed: 35
soybean; [3]
  Plant response rating, Soybean: 0
soybean; 31 g ai/ha
  Soybean plant response rating: 0
soybean; 62 g ai/ha
  Soybean plant response rating: 30
soybean; [1]
  Plant response rating, Soybean: 60
Field bindweed; [3]
  Plant response rating, Field Bindweed: 0
Field bindweed; 16 g ai/ha
  Field Bindweed plant response rating: 0
Field bindweed; 31 g ai/ha
  Field Bindweed plant response rating: 0
Field bindweed; 62 g ai/ha
  Field Bindweed plant response rating: 20
Field bindweed; [1]
  Plant response rating, Field Bindweed: 30
Yellow nutsedge; [3]
  Plant response rating, Nutsedge, Yellow: 0
Yellow nutsedge; 31 g ai/ha
  Nutsedge, Yellow plant response rating: 20
Yellow nutsedge; 62 g ai/ha
  Nutsedge, Yellow plant response rating: 30
Yellow nutsedge; [1]
  Plant response rating, Nutsedge, Yellow: 40
